The values below come from US20220218699A1, “New Pharmaceutical Formulation” (Hoffmann-La Roche Inc., priority 2019, published 2022).

Series [1] in a line: Single-dose food effect study in dogs. It is filed as in vivo. Particulars: formulation that did not comprise at least one acidulant. The source says: Such food effects can cause difficulty during human testing of drugs as the fed or fasted condition of the patient can cause exposure or bioavailability of drugs to vary widely.
For series [2], the target named is TrkC (Homo sapiens, UniProt Q16288). The note with it: cited from earlier work.
TrkC, sequence (Q16288 32-839): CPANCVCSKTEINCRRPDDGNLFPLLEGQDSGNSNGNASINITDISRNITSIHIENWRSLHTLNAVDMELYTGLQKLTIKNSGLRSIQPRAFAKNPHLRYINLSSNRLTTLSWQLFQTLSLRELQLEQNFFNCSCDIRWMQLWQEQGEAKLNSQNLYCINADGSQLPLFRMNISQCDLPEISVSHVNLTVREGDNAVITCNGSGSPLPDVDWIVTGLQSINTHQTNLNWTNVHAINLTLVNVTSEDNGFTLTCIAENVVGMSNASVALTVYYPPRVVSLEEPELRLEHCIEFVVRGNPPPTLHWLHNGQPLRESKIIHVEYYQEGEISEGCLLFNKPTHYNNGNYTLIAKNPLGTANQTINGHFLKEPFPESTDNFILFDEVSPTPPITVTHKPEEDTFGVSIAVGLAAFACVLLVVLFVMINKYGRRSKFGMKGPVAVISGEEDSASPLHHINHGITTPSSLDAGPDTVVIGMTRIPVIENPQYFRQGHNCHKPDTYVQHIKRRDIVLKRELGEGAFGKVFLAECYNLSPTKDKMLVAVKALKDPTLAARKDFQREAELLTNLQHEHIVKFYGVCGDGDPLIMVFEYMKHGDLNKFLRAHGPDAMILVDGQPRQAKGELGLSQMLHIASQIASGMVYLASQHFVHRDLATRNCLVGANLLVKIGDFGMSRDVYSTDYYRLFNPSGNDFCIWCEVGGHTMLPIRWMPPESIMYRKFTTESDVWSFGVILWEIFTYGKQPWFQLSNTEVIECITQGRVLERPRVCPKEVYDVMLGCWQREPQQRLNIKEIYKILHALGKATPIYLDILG
For series [3], the target named is anaplastic lymphoma kinase (ALK) (Homo sapiens, UniProt Q9UM73). The note with it: cited from earlier work.
anaplastic lymphoma kinase (ALK), sequence (Q9UM73 19-1620): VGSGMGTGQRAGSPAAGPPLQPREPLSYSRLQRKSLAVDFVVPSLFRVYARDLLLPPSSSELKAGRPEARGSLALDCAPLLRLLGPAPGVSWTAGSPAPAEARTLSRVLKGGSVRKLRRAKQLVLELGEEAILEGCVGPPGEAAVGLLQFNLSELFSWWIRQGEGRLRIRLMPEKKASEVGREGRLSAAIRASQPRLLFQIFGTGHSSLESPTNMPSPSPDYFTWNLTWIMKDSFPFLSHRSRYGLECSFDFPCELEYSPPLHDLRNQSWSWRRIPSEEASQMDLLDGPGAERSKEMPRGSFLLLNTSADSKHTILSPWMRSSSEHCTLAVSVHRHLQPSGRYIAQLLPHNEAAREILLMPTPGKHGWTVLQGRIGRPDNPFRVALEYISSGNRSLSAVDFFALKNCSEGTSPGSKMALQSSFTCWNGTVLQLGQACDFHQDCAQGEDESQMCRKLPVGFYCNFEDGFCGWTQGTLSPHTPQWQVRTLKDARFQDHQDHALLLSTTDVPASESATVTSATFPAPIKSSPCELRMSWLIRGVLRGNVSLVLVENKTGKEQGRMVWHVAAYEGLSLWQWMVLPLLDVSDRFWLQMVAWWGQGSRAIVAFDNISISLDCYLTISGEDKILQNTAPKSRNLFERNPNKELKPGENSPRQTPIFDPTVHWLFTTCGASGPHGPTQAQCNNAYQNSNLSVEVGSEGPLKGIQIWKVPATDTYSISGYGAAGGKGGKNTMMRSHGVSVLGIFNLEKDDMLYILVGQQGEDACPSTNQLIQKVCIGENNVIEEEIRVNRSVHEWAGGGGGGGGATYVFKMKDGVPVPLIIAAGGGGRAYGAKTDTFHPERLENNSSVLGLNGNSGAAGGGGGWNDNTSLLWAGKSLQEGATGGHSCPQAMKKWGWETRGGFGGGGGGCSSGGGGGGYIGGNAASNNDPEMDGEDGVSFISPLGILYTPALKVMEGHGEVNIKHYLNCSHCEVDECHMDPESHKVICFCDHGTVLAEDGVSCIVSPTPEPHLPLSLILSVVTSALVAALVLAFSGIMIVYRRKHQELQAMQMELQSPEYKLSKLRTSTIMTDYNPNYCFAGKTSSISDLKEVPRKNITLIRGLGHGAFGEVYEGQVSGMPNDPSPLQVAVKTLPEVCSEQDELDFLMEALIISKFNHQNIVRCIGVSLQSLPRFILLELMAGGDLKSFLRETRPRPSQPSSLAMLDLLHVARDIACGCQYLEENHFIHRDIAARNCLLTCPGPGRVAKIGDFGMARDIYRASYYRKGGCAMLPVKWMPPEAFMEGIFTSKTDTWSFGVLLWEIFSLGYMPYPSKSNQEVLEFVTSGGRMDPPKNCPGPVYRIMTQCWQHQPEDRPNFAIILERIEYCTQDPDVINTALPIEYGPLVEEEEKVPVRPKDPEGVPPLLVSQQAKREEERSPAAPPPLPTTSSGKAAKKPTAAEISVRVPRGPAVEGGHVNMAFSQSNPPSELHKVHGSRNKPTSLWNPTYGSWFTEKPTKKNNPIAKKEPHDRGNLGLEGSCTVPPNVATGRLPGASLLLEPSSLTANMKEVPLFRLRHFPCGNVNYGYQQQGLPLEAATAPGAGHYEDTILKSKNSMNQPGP
In series [4] the target is TrkB (Homo sapiens, UniProt Q16620). Particulars: cited from earlier work.
TrkB, sequence (Q16620 32-822): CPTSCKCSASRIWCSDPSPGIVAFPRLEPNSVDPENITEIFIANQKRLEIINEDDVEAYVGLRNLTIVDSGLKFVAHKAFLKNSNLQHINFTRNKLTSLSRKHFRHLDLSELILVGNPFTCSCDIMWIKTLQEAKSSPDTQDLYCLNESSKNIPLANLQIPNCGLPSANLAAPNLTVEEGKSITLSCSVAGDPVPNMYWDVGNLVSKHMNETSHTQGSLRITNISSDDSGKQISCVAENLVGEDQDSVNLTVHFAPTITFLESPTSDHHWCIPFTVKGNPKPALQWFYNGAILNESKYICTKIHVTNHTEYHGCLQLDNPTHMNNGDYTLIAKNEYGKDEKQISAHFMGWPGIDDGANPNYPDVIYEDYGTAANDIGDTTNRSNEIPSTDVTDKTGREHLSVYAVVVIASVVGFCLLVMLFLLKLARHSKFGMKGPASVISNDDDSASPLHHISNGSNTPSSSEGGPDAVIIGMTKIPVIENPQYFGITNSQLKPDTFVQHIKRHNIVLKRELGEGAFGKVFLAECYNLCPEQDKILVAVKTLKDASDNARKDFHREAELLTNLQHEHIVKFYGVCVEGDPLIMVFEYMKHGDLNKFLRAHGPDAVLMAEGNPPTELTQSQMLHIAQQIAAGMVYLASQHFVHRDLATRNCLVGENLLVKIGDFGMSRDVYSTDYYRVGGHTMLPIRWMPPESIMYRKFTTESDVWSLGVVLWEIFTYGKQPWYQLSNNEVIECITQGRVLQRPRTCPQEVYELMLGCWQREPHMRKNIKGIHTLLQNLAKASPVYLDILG

For the compound `CN1CCN(c2ccc(C(=O)Nc3n[nH]c4ccc(Cc5cc(F)cc(F)c5)cc34)c(NC3CCOCC3)c2)CC1` [N-[5-(3,5-difluorobenzyl)-1H-indazol-3-yl]-4-(4-methyl-piperazin-1-yl)-2-(tetrahydro-pyran-4-ylamino)-benzamide], the “exposure levels under fed conditions compared to fasting conditions” value in series [1] is given as “approximately 2 fold”. For the same compound, the “inhibition of tyrosine kinase TrkC” value in series [2] is “potent inhibitor”. Further, the “inhibition of tyrosine kinase ALK” value in series [3] was “potent inhibitor”. The “inhibition of tyrosine kinase TrkB” value in series [4] is “potent inhibitor”.
